Assay results taken from US4272437A, “Antibacterial agents, and 4-thio azetidinone intermediates” (priority 1979, dated 1981).
Converted amounts (≈) assume the structure as drawn.

What was measured:
[1] = system: Str. pneumoniae A-9585; assay: MIC, tube dilution, Streptococcus pneumoniae A9585; format: cell-based; conditions: overnight 37° C., Nutrient Broth; for Minimum Inhibitory Concentration (M.I.C.): Str. pneumoniae A9585
Text: (§1) Representative compounds of the present invention were subjected to in vitro antibiotic screening against a variety of microorganisms.

[2] = system: Str. pyogenes A-9604; assay: MIC, tube dilution, Streptococcus pyogenes A9604; format: cell-based; conditions: overnight 37° C., Nutrient Broth; for Minimum Inhibitory Concentration (M.I.C.): Str. pyogenes A9604
Text: as §1

[3] = system: Staph. aureus A-9537; assay: MIC, tube dilution, Staphylococcus aureus A9537; format: cell-based; conditions: overnight 37° C., Nutrient Broth; for Minimum Inhibitory Concentration (M.I.C.): Staph. aureus A9537
Text: as §1

[4] = system: Staph. aureus A-9537 and 50% serum; assay: MIC, tube dilution, Staph. aureus A9537 + 50% serum; format: cell-based, Staphylococcus aureus; conditions: overnight 37° C.
Text: as §1

[5] = system: Staph. aureus (Pen-Res) A-9606; assay: MIC, tube dilution, Staphylococcus aureus A9606 (Pen-Res); format: cell-based; conditions: Staph. aureus A9606 (Pen-Res), overnight 37° C.
Text: as §1

[6] = system: Staph. aureus (Meth-Res) A-15097; assay: MIC, tube dilution, Staphylococcus aureus A15097 (Meth-Res); format: cell-based; conditions: Staph. aureus A15097 (Meth-Res), overnight 37° C.
Text: as §1

[7] = system: Str. faecalis A-20688; assay: MIC, tube dilution, Streptococcus faecalis A20688; format: cell-based; conditions: overnight 37° C.; for Minimum Inhibitory Concentration (M.I.C.): Str. faecalis A20688
Text: as §1

[8] = system: E. coli A-15119; assay: MIC, tube dilution, Escherichia coli A15119; format: cell-based; conditions: overnight 37° C.; for Minimum Inhibitory Concentration (M.I.C.): E. coli A15119
Text: as §1

[9] = system: E. coli A-20341-1; assay: MIC, tube dilution, Escherichia coli A20341-1; format: cell-based; conditions: overnight 37° C.; for Minimum Inhibitory Concentration (M.I.C.): E. coli A20341-1
Text: as §1

[10] = system: K. pneumoniae A-15130; assay: MIC, tube dilution, Klebsiella pneumoniae A15130; format: cell-based; conditions: overnight 37° C.; for Minimum Inhibitory Concentration (M.I.C.): K. pneumoniae A15130
Text: as §1

[11] = system: Klebsiella species A20468; assay: MIC, tube dilution, Klebsiella species A20468; format: cell-based; conditions: Klebsiella species (K. pneumoniae) A20468, overnight 37° C.
Text: as §1

[12] = system: Pr. mirabilis A-9900; assay: MIC, tube dilution, Proteus mirabilis A9900; format: cell-based; conditions: overnight 37° C.; for Minimum Inhibitory Concentration (M.I.C.): Proteus mirabilis A9900
Text: as §1

[13] = system: Pr. vulgaris A-9716; assay: MIC, tube dilution, Proteus vulgaris / Proteus mirabilis A9716; format: cell-based, Proteus vulgaris (name changed to Proteus mirabilis); conditions: overnight 37° C.
Text: as §1

[14] = system: Pr. morganii A-15153; assay: MIC, tube dilution, Proteus morganii A15153; format: cell-based; conditions: overnight 37° C.; for Minimum Inhibitory Concentration (M.I.C.): Proteus morganii A15153
Text: as §1

[15] = system: Providencia stuartii A21205; assay: MIC, tube dilution, Providencia stuartii (Pr. rettgeri) A21205; format: cell-based; conditions: overnight 37° C.; for Minimum Inhibitory Concentration (M.I.C.): Providencia stuartii (Pr. rettgeri) A21205
Text: as §1

[16] = system: Ser. marcescens A-20019; assay: MIC, tube dilution, Serratia marcescens A20019; format: cell-based; conditions: overnight 37° C.; for Minimum Inhibitory Concentration (M.I.C.): Serratia marcescens A20019
Text: as §1

[17] = system: Ent. cloacae A-9659; assay: MIC, tube dilution, Enterobacter cloacae A9659; format: cell-based; conditions: overnight 37° C.; for Minimum Inhibitory Concentration (M.I.C.): Enterobacter cloacae A9659
Text: as §1

[18] = system: Ent. cloacae A-9656; assay: MIC, tube dilution, Enterobacter cloacae A9656; format: cell-based; conditions: overnight 37° C.; for Minimum Inhibitory Concentration (M.I.C.): Enterobacter cloacae A9656
Text: as §1

[19] = system: Ps. aeruginosa A-9843A; assay: MIC, tube dilution, Pseudomonas aeruginosa A9843A; format: cell-based; conditions: Pseudomonas aeruginosa A9843A; overnight 37° C.
Text: as §1

[20] = system: Ps. aeruginosa A-21213; assay: MIC, tube dilution, Pseudomonas aeruginosa A21213; format: cell-based; conditions: Pseudomonas aeruginosa A21213; overnight 37° C.
Text: as §1

[21] = Staphylococcus aureus, read-out: Minimum Inhibitory Concentration (M.I.C.)

Compound	Minimum Inhibitory Concentration (M.I.C.) [1]	Minimum Inhibitory Concentration (M.I.C.) [2]	Minimum Inhibitory Concentration (M.I.C.) [3]	Minimum Inhibitory Concentration (M.I.C.) [4]	Minimum Inhibitory Concentration (M.I.C.) [5]	Minimum Inhibitory Concentration (M.I.C.) [6]	Minimum Inhibitory Concentration (M.I.C.) [7]	Minimum Inhibitory Concentration (M.I.C.) [8]	Minimum Inhibitory Concentration (M.I.C.) [9]	Minimum Inhibitory Concentration (M.I.C.) [10]	Minimum Inhibitory Concentration (M.I.C.) [11]	Minimum Inhibitory Concentration (M.I.C.) [12]	Minimum Inhibitory Concentration (M.I.C.) [14]	Minimum Inhibitory Concentration (M.I.C.) [15]	Minimum Inhibitory Concentration (M.I.C.) [16]	Minimum Inhibitory Concentration (M.I.C.) [17]	Minimum Inhibitory Concentration (M.I.C.) [18]	Minimum Inhibitory Concentration (M.I.C.) [19]	Minimum Inhibitory Concentration (M.I.C.) [20]	further results
6-Acetoxymethyl-2-methylpenem-3-carboxylic Acid [Example 2]	1 µg/mL	2 µg/mL	8 µg/mL	> 63 µg/mL	4 µg/mL	8 µg/mL	63 µg/mL	32 µg/mL	32 µg/mL	63 µg/mL	> 125 µg/mL	63 µg/mL	63 µg/mL	32 µg/mL	125 µg/mL	125 µg/mL	> 125 µg/mL	> 125 µg/mL	> 125 µg/mL	Minimum Inhibitory Concentration (M.I.C.) ([13]; Proteus vulgaris / Proteus mirabilis A9716): 63 µg/mL
CCC1C(=O)N2C(C(=O)[O-])=C(C)S[C@H]12.[Na+] (stereo partly drawn) [1 (trans), Sodium 6-Ethyl-2-methylpenem-3-carboxylate]	2 µg/mL	4 µg/mL	8 µg/mL	> 63 µg/mL	8 µg/mL	8 µg/mL	> 125 µg/mL	125 µg/mL	125 µg/mL	> 125 µg/mL	> 125 µg/mL	125 µg/mL	> 125 µg/mL	63 µg/mL	> 125 µg/mL	> 125 µg/mL	> 125 µg/mL	> 125 µg/mL	> 125 µg/mL	–
CC1=C(C(=O)O)N2C(=O)C(C(O)c3ccccc3)C2S1 (stereo not drawn) [Example 4]	–	–	–	–	–	–	–	–	–	–	–	–	–	–	–	–	–	–	–	MIC ([1]; Streptococcus pneumoniae, A9585, Str. pneumoniae A9585, read-out: Minimum Inhibitory Concentration (M.I.C.)): 1 µg/mL (≈ 3.43 µM); MIC ([2]; Streptococcus pyogenes, A9604, Str. pyogenes A9604, read-out: Minimum Inhibitory Concentration (M.I.C.)): 4 µg/mL (≈ 13.7 µM); MIC ([3]; Staphylococcus aureus, A9537, Staph. aureus A9537, read-out: Minimum Inhibitory Concentration (M.I.C.)): 8 µg/mL (≈ 27.5 µM); MIC [4, 21]: > 63 µg/mL; MIC [5, 21]: 4 µg/mL (≈ 13.7 µM); MIC [6, 21]: 125 µg/mL (≈ 429 µM); MIC ([7]; Enterococcus faecalis, A20688, Str. faecalis A20688, read-out: Minimum Inhibitory Concentration (M.I.C.)): 125 µg/mL (≈ 429 µM); MIC ([8]; Escherichia coli, A15119, E. coli A15119, read-out: Minimum Inhibitory Concentration (M.I.C.)): > 125 µg/mL; MIC ([9]; Escherichia coli, A203411, E. coli A20341-1, read-out: Minimum Inhibitory Concentration (M.I.C.)): > 125 µg/mL; MIC ([10]; Klebsiella pneumoniae, A15130, K. pneumoniae A15130, read-out: Minimum Inhibitory Concentration (M.I.C.)): > 125 µg/mL; MIC ([11]; read-out: Minimum Inhibitory Concentration (M.I.C.)): > 125 µg/mL; MIC ([12]; Proteus mirabilis, A9900, Proteus mirabilis A9900, read-out: Minimum Inhibitory Concentration (M.I.C.)): 63 µg/mL (≈ 216 µM); MIC ([13]; Proteus vulgaris, A9716, Proteus vulgaris / Proteus mirabilis A9716, read-out: Minimum Inhibitory Concentration (M.I.C.)): 63 µg/mL (≈ 216 µM); MIC ([14]; Morganella morganii, A15153, Proteus morganii A15153, read-out: Minimum Inhibitory Concentration (M.I.C.)): 125 µg/mL (≈ 429 µM); MIC ([15]; Providencia stuartii, A21205, Providencia stuartii (Pr. rettgeri) A21205, read-out: Minimum Inhibitory Concentration (M.I.C.)): 125 µg/mL (≈ 429 µM); MIC ([16]; Serratia marcescens, A20019, Serratia marcescens A20019, read-out: Minimum Inhibitory Concentration (M.I.C.)): > 125 µg/mL; MIC ([17]; Enterobacter cloacae, A9659, Enterobacter cloacae A9659, read-out: Minimum Inhibitory Concentration (M.I.C.)): > 125 µg/mL; MIC ([18]; Enterobacter cloacae, A9656, Enterobacter cloacae A9656, read-out: Minimum Inhibitory Concentration (M.I.C.)): > 125 µg/mL
